Assay results as given in patent publication US11981731B2, “Targeting cytotoxic cells with chimeric receptors for adoptive immunotherapy” (Novartis AG, priority 2014, dated 2024).
“Also recorded” adds a separate entry of the source. Like-named read-outs stand apart in the source and are kept apart here.

Columns and labels:
huCAR19 CAR T cells = assay: CAR T cell expansion in vivo with RAD001 (FACS); parameters: species or system NSG mice; conditions: lowest doses of RAD001, daily oral
Experimental: Mice were administered 5×10^6 CAR T cells 7 days after tumor implantation. Cells were partially thawed in a 37 degree Celsius water bath and then completely thawed by the addition of 1 ml of cold sterile PBS to the tube containing the cells. The thawed cells were transferred to a 15 ml falcon tube and adjusted to a final volume of 10 mls with PBS. The cells were washed twice at 1000 rpm for 10 minutes each time and then counted on a hemocytometer. T cells were then resuspended at a concentration of 50×10^6 CAR T cells per ml of cold PBS and kept on ice until the mice were dosed. The mice were injected intravenously via the tail vein with 100 μl of the CAR T cells for a dose of 5×10^6 CAR T cells per mouse. Eight mice per group were treated either with 100 μl of PBS alone (PBS), or humanized CD19 CAR T cells.
(§1) A concentrated micro-emulsion of 50 mg equal to 1 mg RAD001 was formulated and then resuspended in D5W (dextrose 5% in water) at the time of dosing. Mice were orally dosed daily (via oral gavage) with 200 μl of the desired doses of RAD001.
Based on these doses, huCAR19 CAR T cells were dosed with and without RAD001 to determine the proliferative ability of these cells. The highest dose used was 3 mg/kg based on the levels of RAD001 in the blood 24 hours after dosing. […] Mice were monitored via FACS for T cell expansion.

NALM6-luc tumors = assay: NALM6-luc tumor growth under daily oral RAD001; assay type: in vivo, NSG mice; conditions: daily oral dosing of RAD001 alone
Experimental: NALM6-luc cells were grown and expanded in vitro in RPMI supplemented with 10% heat inactivated fetal bovine serum. The cells were then transferred to a 15 ml conical tube and washed twice with cold sterile PBS. NALM6-luc cells were then counted and resuspended at a concentration of 10×10^6 cells per milliliter of PBS. The cells were placed on ice and immediately (within one hour) implanted in the mice. NALM6-luc cells were injected intravenously via the tail vein in a 100 μl volume, for a total of 1×10^6 cells per mouse.
as §1

[1] = system: CAR-positive CD3-positive T cells co-cultured with Nalm-6 cells; assay: CART proliferation in co-culture with Nalm-6 cells with RAD001; assay type: cell-based; conditions: low doses of RAD001, 4 days of co-culture with Nalm-6
Experimental: CARTs were co-cultured with Nalm-6 cells in the presence of different concentrations of RAD001. The number of CAR-positive CD3-positive T cells (black) and total T cells (gray) was assessed after 4 days of co-culture.

[2] = system: CD4+ and CD8+ CAR T cells; assay: In vivo proliferation of humanized CD19 CART cells with and without RAD001; conditions: 0.003 mg/kg daily with huCTL019
Experimental: FIG. 49A and FIG. 49B show in vivo proliferation of humanized CD19 CART cells with and without RAD001 dosing. […] Circles denote PBS; squares denote huCTL019; triangles denote huCTL019 with 3 mg/kg RAD001; inverted triangles denote huCTL019 with 0.3 mg/kg RAD001; diamonds denote huCTL019 with 0.03 mg/kg RAD001; and circles denote huCTL019 with 0.003 mg/kg RAD001.

[3] = RAD001 PK analysis in NSG mice with NALM6-luc tumors; assay type: in vivo; conditions: for concentration at 24 h: NSG, mouse
Experimental: as §1
Mice were dosed daily with RAD001 starting 7 days post tumor implantation. Dosing groups were as follows: 0.3 mg/kg, 1 mg/kg, 3 mg/kg, and 10 mg/kg. Mice were bled on days 0 and 14 following the first and last dose of RAD001, at the following time points for PK analysis: 15 minutes, 30 minutes, 1 hour, 2 hours, 4 hours, 8 hours, 12 hours, and 24 hours.

huCART19 cells = assay: CART proliferation in 4 day co-culture with Nalm-6 in presence of RAD001; assay type: cell-based, human
Experimental: To evaluate the functionality of CARTs, the T cells are thawed and counted, and viability is assessed by Cellometer. The number of CAR-positive cells in each culture is normalized using non-transduced T cells (UTD). The impact of RAD001 on CARTs was tested in titrations with RAD001, starting at 50 nM. The target cell line used in all co-culture experiments is Nalm-6, a human pre-B cell acute lymphoblastic leukemia (ALL) cell line expressing CD19 and transduced to express luciferase.
For measuring the proliferation of CARTs, T cells are cultured with target cells at a ratio of 1:1. The assay is run for 4 days, when cells are stained for CD3, CD4, CD8 and CAR expression. The number of T cells is assessed by flow cytometry using counting beads as reference.

CO[C@H]1C[C@@H]2CC[C@@H](C)[C@@](O)(O2)C(=O)C(=O)N2CCCC[C@H]2C(=O)O[C@H]([C@H](C)C[C@@H]2CC[C@@H](OCCO)[C@H](OC)C2)CC(=O)[C@H](C)/C=C(\C)[C@@H](O)[C@@H](OC)C(=O)[C@H](C)C[C@H](C)/C=C/C=C/C=C/1C [RAD001, everolimus]
proliferation of the CAR T cells in vivo (huCAR19 CAR T cells): enhanced proliferation; also recorded: more evident and prolonged with the CD4^+ CAR T cells
impact on the growth of NALM6-luc tumors (NALM6-luc tumors): did not have an impact
proliferation of CAR-expressing, transduced T cells [1]: enhanced
in vivo CAR T cell proliferation [2]: enhancement in CAR T cell proliferation
concentration at 24 h ([3]; blood, oral, 0.3 mg/kg, 24 hours after the final dose, read-out: concentration of RAD001): > 10 nM
concentration at 24 h ([3]; whole blood, 24 hours after dosing, 0.3 mg/kg oral, day 0 and day 14, read-out: RAD001 concentrations in the blood): > 10 nM
stability in the blood of tumor bearing mice ([3]; daily oral dosing): fairly stable
proliferation of huCART19 cells (huCART19 cells; 0.0032 and 0.016 nM RAD001): higher than observed without the addition of RAD001
expansion of huCART19 cells (huCART19 cells; less than 0.016 nM of RAD001): expanded
